Test results taken from patent US4810630A, “Use of polyoxyethylene ethers to improve the performance of immunoassays employing peroxidase conjugates” (priority 1987, dated 1989).

Tested on: N. gonorrhea
Test: Microtiter plate enzyme immunoassay: optimization of coating antibody concentration with detergent in assay buffer
Design: species or system Neisseria gonorrhea
Method: Samples were treated 1.0N NaOH and neutralized with assay buffer as described in Example 1, above. For this assay, 0.100 mL aliquots of the treated, neutralized sample were transferred to the wells of a 96-well microtiter plate which had been previously incubated with an optimized concentration of anti-N. gonorrhea antibody diluted in phosphate buffered saline for 90-120 minutes, drained, then blocked with a solution containing 1.0% bovine serum albumin and 20% sucrose in phosphate buffered saline for 2 hours and dried in vacuo. The aliquots were permitted to incubate in the microtiter plate wells for 90 minutes at room temperature,then drained and washed with phosphate buffered saline containing 0.05% Tween® 20. Horseradish peroxidase conjugated anti-N. gonorrhea, 100 μL of an optimized concentration, was then added to each well and the plate again incubated for 1 hour at room temperature. The plate was then drained and washed as above. A 100 μL portion of the substrate/chromogen solution described in Example 1, above, was then added to each well and incubated for 10 minutes at room temperature. The absorbance of each well was then determined at 630 nm, and corrected for the absorbance at 490 nm.
Antibody specific for Neisseria gonorrhea was used to coat the wells of microtiter plates at varying concentrations in phosphate buffered saline, as described above. A comparison of the optimal antibody concentration in assays using Tween® 20 or Triton® X-100 was made by testing a single concentration of N. gonorrhea in wells previously coated, blocked, and dried as described above. The optimum concentration of antibody is identified as that which yields the maximum signal in the assay with a minimal background response. Table 4 lists the results of such experiments using Tween® 20 and Triton® X-100 as detergents in the assay buffer.

Q: For “polyoxyethylene-sorbitan monolaurate [Tween ® 20]”, which “% Maximum Signal” value (coating antibody 0.05 μg/well) is on record?
A: The value was 16%.

Q: What about the “% Maximum Signal” value (coating antibody 0.1 μg/well) of the same substance?
A: The value was 35%.

Q: What about the “% Maximum Signal” value (coating antibody 0.5 μg/well) of the same substance?
A: The value was 100%.

Q: What about the “% Maximum Signal” value (coating antibody 0.8 μg/well) of the same substance?
A: The value was 98%.

Q: What about the “% Maximum Signal” value (coating antibody 1.0 μg/well) of the same substance?
A: The value was 90%.

Q: And the “% Maximum Signal” value (coating antibody 1.5 μg/well)?
A: The value was 77%.

Q: And the “% Maximum Signal” value (coating antibody 2.0 μg/well)?
A: Its value is 66%.

Q: Which results are given for “polyoxyethylene-octylphenoxy [Triton ® X-100]”?
A: % Maximum Signal (coating antibody 0.20 μg/well): 100%; % Maximum Signal (coating antibody 0.30 μg/well): 98%; % Maximum Signal (coating antibody 0.35 μg/well): 70%; % Maximum Signal (coating antibody 0.40 μg/well): 69%; % Maximum Signal (coating antibody 0.45 μg/well): 66%; % Maximum Signal (coating antibody 0.5 μg/well): 58%; % Maximum Signal (coating antibody 0.60 μg/well): 57%
